Where a name gives a salt, the structure may show the parent alone.
Target: T1, human CB2 receptors (Homo sapiens, UniProt P34972)
T1 construct: expressed in transfected cells; membranes prepared from them
Test: Affinity for human CB2 receptors: inhibition of [3H]-CP55940 binding to membranes of transfected CHO-K1 cells
Details: not given
Method: Study of the Affinity of the Compounds for Human Cannabinoid CB2 Receptors
The affinity of the compounds of the invention for human CB2 receptors was determined by measuring inhibition of [^3H]-CP55940 binding to membrane preparations produced from transfected CHO-K1 cells.
CHO-K1 cells stably expressing human CB2 receptors were cultured in RPMI 1640 medium supplemented with 10% foetal calf serum, 2 mM glutamine, 100 U/ml penicillin, 0.1 mg/ml streptomycin and 0.5 mg/ml G418. The cells were collected using 0.5 mM EDTA and centrifuged at 500 g for 5 min at 4° C. The cell pellet was resuspended in phosphate buffered saline (PBS) and centrifuged at 500 g for 5 min at 4° C. The pellet was resuspended in 50 mM tris buffer pH 7.4 and centrifuged at 500 g for 5 min at 4° C. The cells were lysed by sonication and centrifuged at 39,000 g for 10 min at 4° C. The pellet was resuspended in 50 mM tris buffer pH 7.4 and centrifuged at 50,000 g for 10 min at 4° C. The membranes obtained in this final pellet were stored at −80° C.
Competitive inhibition of the binding of [^3H]-CP55940 to CB2 receptors was determined in duplicate in 96-well polypropylene plates. Cell membranes (10 μg of protein/well) were incubated with [^3H]-CP55940 (1 nM) for 60 min at 25° C. in 50 mM Tris-HCl buffer, pH 7.4, containing 0.1% bovine serum albumin (BSA), 5 mM MgCl2, and 50 μg/ml of bacitracin.
Bound [^3H]-CP55940 was separated from free [^3H]-CP55940 by filtration through GF/C fibre glass filter plates (Unifilter, Packard) pre-impregnated with 0.1% polyethylenimine (P.E.I.), using a Filtermate 196 (Packard). The filters were washed with 50 mM Tris-HCl buffer, pH 7.4 at 0-4° C. and the radioactivity present was determined using a counter (Packard Top Count).
Specific binding was obtained by subtracting non-specific binding (determined in the presence of 0.1 μM WIN55212-2) from total binding. The data were analysed by computer-assisted nonlinear regression (MDL). For each test, the IC50 value was converted to a Ki value (inhibition constant) using the Cheng-Prusoff equation.
where [L] is the concentration of the radioligand used in the assay and Kd is the dissociation constant of the radioligand at equilibrium.

T1 sequence (P34972 whole entry): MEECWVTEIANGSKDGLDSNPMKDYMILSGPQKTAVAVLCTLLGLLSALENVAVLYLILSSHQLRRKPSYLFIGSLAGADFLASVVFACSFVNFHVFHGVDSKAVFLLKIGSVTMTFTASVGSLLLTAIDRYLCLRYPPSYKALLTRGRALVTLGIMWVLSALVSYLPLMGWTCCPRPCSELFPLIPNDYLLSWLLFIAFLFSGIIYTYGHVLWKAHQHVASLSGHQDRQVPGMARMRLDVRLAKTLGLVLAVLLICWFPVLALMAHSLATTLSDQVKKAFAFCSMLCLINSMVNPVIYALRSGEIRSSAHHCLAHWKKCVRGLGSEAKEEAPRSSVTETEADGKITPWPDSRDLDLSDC

SMILES	Ki [nM]
COc1c(C(C)(C)C)cc(-c2csc(C3(N(C)C)CCOCC3)n2)cc1C(C)(C)C [Example 2, {4-[4-(3,5-di-tert-butyl-4-methoxyphenyl)-1,3-thiazol-2-yl]tetrahydro-2H-pyran-4-yl}dimethylamine hydrochloride]	≤ 100
CC(C)(C)c1cc(-c2csc(C3(N4CCOCC4)CCOCC3)n2)cc(C(C)(C)C)c1O [Example 21, 2,6-di-tert-butyl-4-[2-(4-morpholin-4-yltetrahydro-2H-pyran-4-yl)-1,3-thiazol-4-yl]phenol]	100 to 500
CN(C)C1(c2nc(-c3cc(C(C)(C)C)c(O)c(C(C)(C)C)c3)co2)CCOCC1 [Example 15, 2,6-di-tert-butyl-4-{2-[4-(dimethylamino)tetrahydro-2H-pyran-4-yl]-1,3-oxazol-4-yl}phenol hydrochloride]	≤ 100
CC(C)(C)c1cc(-c2csc(C3(N4CCCCC4)CCOCC3)n2)cc(C(C)(C)C)c1O [Example 20, 2,6-di-tert-butyl-4-[2-(4-piperidin-1-yltetrahydro-2H-pyran-4-yl)-1,3-thiazol-4-yl]phenol hydrochloride]	≤ 100
COc1ccc(-c2csc(C3(N(C)C)CCOCC3)n2)cc1C(C)(C)C [Example 14, {4-[4-(3-tert-butyl-4-methoxyphenyl)-1,3-thiazol-2-yl]tetrahydro-2H-pyran-4-yl}dimethylamine hydrochloride]	500 to 1000
CN(C)C1(c2nc(-c3cc(C(C)(C)C)c(O)c(C(C)(C)C)c3)cs2)CCOC1 (stereo not drawn) [Example 7, 2,6-di-tert-butyl-4-{2-[3-(dimethylamino)tetrahydrofuran-3-yl]-1,3-thiazol-4-yl}phenol hydrochloride]	100 to 500

Same assay, conditions: [3H]-CP55940 (1 nM) competition, CHO-K1 membranes; IC50 converted to Ki by Cheng-Prusoff; read-out: affinity for the CB2 receptor

SMILES	Ki [nM]
CN(C)C1(c2nc(-c3ccc(Cc4ccccc4)cc3)cs2)CCOCC1 [Example 29, {4-[4-(4-benzylphenyl)-1,3-thiazol-2-yl]tetrahydro-2H-pyran-4-yl}dimethylamine hydrochloride]	500 to 1000
CN(C)C1(c2nc(-c3ccc(C(C)(C)C)cc3)cs2)CCOCC1 [Example 8, {4-[4-(4-tert-butylphenyl)-1,3-thiazol-2-yl]tetrahydro-2H-pyran-4-yl}dimethylamine hydrochloride]	100 to 500
CN(C)C1(c2nc(-c3cc(C(C)(C)C)cc(C(C)(C)C)c3)cs2)CCOCC1 [Example 11, {4-[4-(3,5-di-tert-butylphenyl)-1,3-thiazol-2-yl]tetrahydro-2H-pyran-4-yl}dimethylamine hydrochloride]	100 to 500
CCN(CC)c1ccc(-c2csc(C3(N(C)C)CCOCC3)n2)cc1 [Example 28, (4-{4-[4-(diethylamino)phenyl]-1,3-thiazol-2-yl}tetrahydro-2H-pyran-4-yl)dimethylamine hydrochloride]	500 to 1000
CCN(CC)C1(c2nc(-c3cc(C(C)(C)C)c(O)c(C(C)(C)C)c3)cs2)CCOCC1 [Example 18, 2,6-di-tert-butyl-4-{2-[4-(diethylamino)tetrahydro-2H-pyran-4-yl]-1,3-thiazol-4-yl}phenol hydrochloride]	≤ 100
CN(C)C1(c2nc(-c3ccc(Oc4ccc([N+](=O)[O-])cc4)cc3)cs2)CCOCC1 [Example 32, N,N-dimethyl-4-{4-[4-(4-nitrophenoxy)phenyl]-1,3-thiazol-2-yl}tetrahydro-2H-pyran-4-amine hydrochloride]	100 to 500
CN1CCC(c2nc(-c3cc(C(C)(C)C)c(O)c(C(C)(C)C)c3)cs2)(N(C)C)CC1 [Example 23, 2,6-di-tert-butyl-4-{2-[4-(dimethylamino)-1-methylpiperidin-4-yl]-1,3-thiazol-4-yl}phenol hydrochloride]	100 to 500
CN(C)C1(c2nc(-c3ccc(Oc4ccccc4)cc3)cs2)CCOCC1 [Example 16, N,N-dimethyl-4-[4-(4-phenoxyphenyl)-1,3-thiazol-2-yl]tetrahydro-2H-pyran-4-amine hydrochloride]	100 to 500
CN(C)C1(c2nc(-c3ccc(Sc4ccccc4)cc3)cs2)CCOCC1 [Example 33, N,N-dimethyl-4-{4-[4-(phenylthio)phenyl]-1,3-thiazol-2-yl}tetrahydro-2H-pyran-4-amine hydrochloride]	500 to 1000

Source: patent US20110059970A1, “4-PHENYL-1,3-THIAZOLES AND 4-PHENYL-1,3-OXAZOLES DERIVATIVES AS CANNABINOID RECEPTOR LIGANDS” (IPSEN PHARMA S.A.S., priority 2007, published 2011)
